# Assays:
# Format in all cases: in vivo, human
# [1] = Pulmonary function tests (FEV1, FVC) by spirometry, Phase 2 cystic fibrosis study
# Experimental: Pulmonary function tests, including FEV1, FVC, and MEF25-75, are measured using standard spirometry procedures. Assessments of pulmonary function (including MEF25-75, FVC, and, particularly, FEV1) have been acknowledged as definitive clinical endpoints in patients with CF (Food and Drug Administration, 62nd Anti-Infective Drugs Advisory Committee. Discussion of NDA for tobramycin solution for inhalation (Tobi®) for the management of cystic fibrosis patients. November, 1997; Tiddens, 2002, Pediatr. Pulmonol. 34(3): 228-31). […] Pulmonary function testing is simple to administer (even in patients as young as 7 years of age), and uses standardized equipment and techniques that are widely available. Interpretation is performed using well-established normative equations that account for patient age, height, and gender.
# (§1) 3-[5-(2-Fluoro-phenyl)-[1,2,4]oxadiazol-3-yl]-benzoic acid was provided in a formulation described herein.
# (§2) Clinical endpoints were evaluated using the procedures set forth above. TEPD measurements were made prior to treatment and on days 14 and 28 of Cycle 1 and Cycle 2. Nasal mucosal curettage was collected from each nostril of each patient prior to treatment and on days 14 and 28 of Cycle 1 and Cycle 2. Pulmonary tests, including FEV1, FVC and MEF25-75, were measured prior to treatment, on day −1 of Cycle 2, on day 13 or 14 of Cycle 1 and day 13 or 14 of Cycle 2 in the study being conducted in Israel and the same parameters were measured prior to treatment and on day 13 or 14 of Cycle 2 in the study being conducted in the United States.
# (§3) Statistically significant results and positive trends for secondary endpoints were also observed. In particular, although the trials were not been powered to detect statistical significant changes in secondary endpoints, statistically significant improvements from study entry to the end of the higher-dose treatment cycle in the patients' mean FEV1, FVC and weight were observed.
# [2] = Patient-reported changes in cystic fibrosis symptoms, asked by trial investigators; conditions: of the 15 patients in the interim analysis
# Text: as §1
# In addition, although changes in patient's symptoms were not formally measured through the use of a quality-of-life questionnaire, trial investigators were requested to ask about changes in patients' cystic fibrosis symptoms. In the 15 patients included in the interim analysis, 6 reported general improvements in well being, 6 reported decrease in cough and 10 reported decreased mucus thickness and easier clearing of mucus.
# [3] = system: CFTR; test: Transepithelial potential difference (TEPD) chloride conductance, Phase 2 study in nonsense-mutation-mediated cystic fibrosis; conditions: for Mean change in TEPD chloride conductance: 15 CF patients; for Number of patients with improvement in TEPD chloride conductance to normal / Number of patients with ≥−5 mV improvement in TEPD chloride conductance: patients/total
# Experimental: The measurement of transepithelial potential difference (TEPD), also known as nasal potential difference, provides a sensitive evaluation of sodium and chloride transport directly in secretory epithelial cells via assessment of transepithelial bioelectric properties (Knowles et al., 1981, N. Engl. J. Med. 305(25):1489-95; Knowles et al., 1995, Hum. Gene Ther. 6:445). TEPD is performed in each nostril using standardized techniques (Standaert et al., 2004, Ped. Pulm. 37:385-92). In the procedure, a small plastic catheter is used to assess electrical differences across the outer cell membrane of nasal mucosa cells in the nostril. TEPD values are expressed in millivolts, or mV. A chloride conductance equal to or more electrically negative than −5.0 mV is generally considered to be in the normal range. […] TEPD assessments can also be made on rectal epithelial cells and lower respiratory epithelial cells. Because of the role of the CFTR protein in transporting chloride ions across cell membranes, and because of the absence of this protein, cystic fibrosis patients have an abnormal TEPD chloride conductance. As an endpoint, TEPD has the advantage that it can detect chloride transport changes that are a quantitative integration of the presence, functional activity, and apical location of the CFTR in airway cells. Furthermore, it is a direct measure of CFTR activity that is not likely to be affected by supportive or palliative treatments for CF (with the possible exception of systemically administered aminoglycoside antibiotics). Of importance is evidence that TEPD values can correlate with the degree of pulmonary dysfunction and radiographic abnormality (Ho et al., 1997, Eur. Respir. J. 10(9):2018-22; Fajac et al., 1998, Eur. Respir. J 12(6):1295-300; Sermet-Gaudelus et al., 2005, Am. J. Respit. Crit. Care Med. 171(9):1026-1031). […] Under baseline conditions, TEPD-assessed chloride channel activity is very unlikely to normalize spontaneously in patients with CF; any observed improvements in TEPD-assessed chloride channel activity are expected to specifically denote pharmacological activity of CFTR-correcting therapies. Accordingly, it has become the primary endpoint in Phase 1-2 pharmacological and gene replacement studies aimed at correcting CFTR dysfunction (Peckham et al., 1995, AJ. Clin Sci (London). 89(3):277-84; Wilschanski et al., 2003, N. Engl. J Med. 349(15):1433-41).
# as §1, §2
# This is the average of the changes from the beginning to the end of the treatment period in TEPD chloride conductance within each study participant. For example, if the changes in TEPD chloride conductance within each of three participants were −7.0 mV, −2.0 mV and −9.0 mV, the mean change in TEPD chloride conductance among these participants would be −6.0 mV.
# For purposes of the trials, a chloride conductance response is defined as a TEPD chloride conductance improvement of at least −5 mV. For example, in a patient with a TEPD chloride conductance value of +1.0 mV at baseline and a TEPD chloride conductance value of −6.0 mV at the end of treatment, the TEPD chloride conductance improvement would be −7.0 mV, representing a chloride conductance response. […]
# [4] = Body weight, Phase 2 cystic fibrosis study
# Text: as §1, §3
# [5] = Change from study entry to end of higher dose treatment
# [6] = Best of nostrils, higher dose level
# [7] = Best of nostrils, lower dose level
# [8] = Mean of both nostrils, higher dose level
# [9] = Mean of both nostrils, lower dose level
smiles,measurement,setting,value
"O=C(O)c1cccc(-c2noc(-c3ccccc3F)n2)c1 [3-[5-(2-Fluoro-phenyl)-[1,2,4]oxadiazol-3-yl]-benzoic acid]","Mean FEV1 change (percentage of normal for gender, age and height)",[1]; [5],3.3%
same,"Mean FVC change (percentage of normal for gender, age and height)",[1]; [5],4.9%
same,"Mean FEV1 (percentage of normal for gender, age and height)","[1]; End of higher dose treatment, study entry 65.8%",69.1%
same,"Mean FVC (percentage of normal for gender, age and height)","[1]; End of higher dose treatment, study entry 80.2%",85.1%
same,Patients who reported decrease in cough,[2],6
same,Patients who reported decreased mucus thickness and easier clearing of mucus,[2],10
same,Patients who reported general improvements in well being,[2],6
same,Number of patients with improvement in TEPD chloride conductance to normal (percentage),[3]; [6],(53%)
same,Number of patients with ≥−5 mV improvement in TEPD chloride conductance (percentage),[3]; [6],(53%)
same,Mean change in TEPD chloride conductance,"[3]; Best of nostrils, higher dose level (10, 10, 20 mg/kg TID oral, 14 days)",−6.4 mV
same,Number of patients with improvement in TEPD chloride conductance to normal,[3]; [6],8/15
same,Number of patients with ≥−5 mV improvement in TEPD chloride conductance,[3]; [6],8/15
same,Number of patients with improvement in TEPD chloride conductance to normal (percentage),[3]; [7],(53%)
same,Number of patients with ≥−5 mV improvement in TEPD chloride conductance (percentage),[3]; [7],(60%)
same,Mean change in TEPD chloride conductance,"[3]; Best of nostrils, lower dose level (4, 4, 8 mg/kg TID oral, 14 days)",−9.0 mV
same,Number of patients with improvement in TEPD chloride conductance to normal,[3]; [7],8/15
same,Number of patients with ≥−5 mV improvement in TEPD chloride conductance,[3]; [7],9/15
same,Number of patients with improvement in TEPD chloride conductance to normal (percentage),[3]; [8],(47%)
same,Number of patients with ≥−5 mV improvement in TEPD chloride conductance (percentage),[3]; [8],(47%)
same,Mean change in TEPD chloride conductance,"[3]; Mean of both nostrils, higher dose level (10, 10, 20 mg/kg TID oral, 14 days)",−4.4 mV
same,Number of patients with improvement in TEPD chloride conductance to normal,[3]; [8],7/15
same,Number of patients with ≥−5 mV improvement in TEPD chloride conductance,[3]; [8],7/15
same,Number of patients with improvement in TEPD chloride conductance to normal (percentage),[3]; [9],(40%)
same,Number of patients with ≥−5 mV improvement in TEPD chloride conductance (percentage),[3]; [9],(40%)
same,Mean change in TEPD chloride conductance,"[3]; Mean of both nostrils, lower dose level (4, 4, 8 mg/kg TID oral, 14 days)",−6.7 mV
same,Number of patients with improvement in TEPD chloride conductance to normal,[3]; [9],6/15
same,Number of patients with ≥−5 mV improvement in TEPD chloride conductance,[3]; [9],6/15
same,Weight change,[4]; [5],0.7 kg
same,Weight,"[4]; End of higher dose treatment, study entry 58.3 kg",59.0 kg
